Measurements: the NIST ThermoML archive (doi:10.1016/j.jct.2010.04.013)

Assay: mn = molality of the nth substance listed, in mol/kg
Conditions: 101 kPa, Liquid; for mass density: Vibrating tube method; for speed of sound: Pulse-echo method

C[S+](C)[O-] [dimethyl sulfoxide] + [Ba+2].[O-][Cl+3]([O-])([O-])[O-].[O-][Cl+3]([O-])([O-])[O-]
m2 = 0
Conditions	mass density [kg/m3]
293.15 K	1100.21
298.15 K	1095.18
303.15 K	1090.16
313.15 K	1080.12
323.15 K	1070.08
333.15 K	1060.02

[Mg+2].[O-][Cl+3]([O-])([O-])[O-].[O-][Cl+3]([O-])([O-])[O-] [magnesium perchlorate] + CO
Conditions	mass density, 283.15 K [kg/m3]	mass density, 288.15 K [kg/m3]	mass density, 293.15 K [kg/m3]	mass density, 298.15 K [kg/m3]	mass density, 303.15 K [kg/m3]	mass density, 308.15 K [kg/m3]	mass density, 313.15 K [kg/m3]	speed of sound, 298.15 K [m/s]
m1 = 0.05219	809.719	805.077	800.41	795.738	791.047	786.336	781.598	1109.9
m1 = 0.06927	812.714	808.079	803.422	798.76	794.077	789.377	784.647	1112.6
m1 = 0.08495	815.487	810.862	806.214	801.554	796.877	792.189	787.47	1115.2
m1 = 0.1015	818.369	813.747	809.112	804.466	799.801	795.117	790.405	1117.5
m1 = 0.1173	821.156	816.545	811.914	807.277	802.62	797.944	793.24	1120
m1 = 0.1339	824.082	819.477	814.852	810.224	805.578	800.91	796.216	1122.5
m1 = 0.1663	829.827	825.238	820.63	816.008	811.382	806.732	802.054	1127.2
m1 = 0.1999	835.828	831.249	826.659	822.059	817.443	812.807	808.147	1132.5
m1 = 0.2312	841.439	836.878	832.301	827.71	823.106	818.493	813.847	1137.2
m1 = 0.2628	847.212	842.663	838.096	833.522	828.937	824.333	819.703	1142
m1 = 0.2917	852.468	847.932	843.38	838.819	834.243	829.645	825.025	1146.5
m1 = 0.3234	858.304	853.784	849.245	844.698	840.139	835.559	830.96	1151.8

CO [methanol] + O=S(=O)([O-])C(F)(F)F.[Na+]
m2 = 0
Conditions	mass density [kg/m3]
283.15 K	800.544
288.15 K	795.854
293.15 K	791.158
298.15 K	786.447
303.15 K	781.714
308.15 K	776.97
313.15 K	772.195

C[S+](C)[O-] [dimethyl sulfoxide] + [Mg+2].[O-][Cl+3]([O-])([O-])[O-].[O-][Cl+3]([O-])([O-])[O-]
m2 = 0
Conditions	mass density [kg/m3]
293.15 K	1100.21
298.15 K	1095.18
303.15 K	1090.16
313.15 K	1080.12
323.15 K	1070.08
333.15 K	1060.02

[O-][Cl+3]([O-])([O-])[O-].[O-][Cl+3]([O-])([O-])[O-].[Sr+2] [strontium perchlorate] + CO
Conditions	mass density, 283.15 K [kg/m3]	mass density, 288.15 K [kg/m3]	mass density, 293.15 K [kg/m3]	mass density, 298.15 K [kg/m3]	mass density, 303.15 K [kg/m3]	mass density, 308.15 K [kg/m3]	mass density, 313.15 K [kg/m3]	speed of sound, 298.15 K [m/s]
m1 = 0.06323	814.327	809.615	804.898	800.168	795.42	790.66	785.866	1108
m1 = 0.07864	817.708	812.989	808.269	803.533	798.779	794.012	789.214	1109.7
m1 = 0.09378	821.019	816.297	811.567	806.826	802.074	797.297	792.492	1111.1
m1 = 0.1093	824.484	819.755	815.021	810.274	805.504	800.727	795.92	1112.6
m1 = 0.1234	827.609	822.874	818.133	813.381	808.608	803.819	799.011	1114
m1 = 0.154	834.44	829.692	824.939	820.172	815.389	810.594	805.771	1116.9
m1 = 0.1834	841.064	836.304	831.54	826.763	821.965	817.158	812.326	1120
m1 = 0.2113	847.498	842.723	837.945	833.161	828.36	823.539	818.693	1122.7
m1 = 0.2388	853.778	848.993	844.206	839.406	834.589	829.75	824.9	1125.5
m1 = 0.266	860.252	855.456	850.654	845.848	841.026	836.183	831.317	1128.2
m1 = 0.2946	867.084	862.275	857.464	852.642	847.803	842.939	838.069	1131.4
